Here are results for nine molecules from patent publication US6906061B2, “Pharmaceutical agent containing Rho kinase inhibitor” (Mitsubishi Pharma Corporation, priority 1996, dated 2005).

One assay has as its system mouse femoral bone. The assay is described as follows: Inhibition of bone resorption (in vitro), mouse femoral bone. The note with it: 6 days incubation of ICR mouse femoral bone. The procedure:
Inhibition of Bone Resorption (in vitro)
The determination of the in vitro inhibition of bone resorption using mouse femoral bone followed the method below.
The femoral bone of 3-6 week old male ICR mice was aseptically removed, and bone marrow cavity was washed with F12 medium, containing 10% heat inactivated fetal bovine serum, penicillin G calcium (100 units/ml), kanamycin sulfate (60 μg) and 0.15% sodium hydrogencarbonate (hereinafter the medium is to be referred to as culture solution). After washing the bone marrow cavity and then removing the soft tissue adhered to the bone, the bone was subjected to incubation. The test compound was once dissolved in dimethyl sulfoxide (DMSO) to give a 10 mg/ml solution, which was diluted 1000-fold with the culture solution to give a 10 μg/ml solution. The test compounds were respectively added to the concentration shown in Table 7 and, using this culture solution (1.2 ml), the ICR mouse femoral bone was incubated in a 24 well plate for 6 days under the conditions of 5% CO2 gas, 95% air. After the completion of the incubation, the culture supernatant was recovered, and the amount of calcium suspending in the culture supernatant was quantitatively determined by the chelate method using o-cresolphthalein. The bone resorption inhibitory action of the test compound was calculated by the following formula using the incubation of the femoral bone without addition of the test compound as a control. [formula] This experiment was done with 4 cases in each group. As the control, the same amount of DMSO alone as in the case with the addition of the test compound was used.

For assay [1], the system named is BALB/c spleen cells stimulated with C57BL/6 spleen cells. As to the kind of experiment: Inhibition of mouse allogenic mixed lymphocyte reaction. To be noted: 4 days culture, MTT, read-out: Mouse allogenic MLR inhibitory activity IC50. It is filed as cell-based. The procedure: Inhibition of Mouse Allogenic Mixed Lymphocyte Reaction
A mouse allogenic mixed lymphocyte reaction (hereinafter to be referred to as mouse allogenic MLR) was performed by mixed culture (equal ratio) of the spleen cell of BALB/c mice as the reaction cell and the spleen cell of C57BL/6 mice treated with mitomycin C as stimulated cell.
The reaction cells were prepared by the following method. Spleen was removed from 5-6 week old BALB/c mice and treated with RPMI1640 medium (containing kanamycin sulfate (60 μg/ml), penicillin G potassium (100 units/ml), N-2-hydroxyethylpiperazine-N′-2-ethanesulfonate (10 mM), 0.1% sodium hydrogencarbonate and L-glutamin (2 mM)) supplemented with 5% heat inactivated fetal bovine serum (FBS) to give a single cell suspension of the spleen cell. After hemolysis treatment, the suspension was adjusted to10^7 cells/ml with RPMI1640 medium containing 10^−4 M 2-mercaptoethanol and 10% FBS and used as a reaction cell suspension.
The reaction cell suspension (50 μl) prepared by the above method, stimulated cell suspension (50 μl) and the test compound (100 μl) prepared using RPMI1640 medium containing 10% FBS were added to a 96 well plate and incubated at 37° C. under 5% CO2 gas, 95% air for 4 days.
A pigment assay using 3-(4,5-dimethylthiazol-2-yl)-2,5-diphenyltetrazolium bromide (MTT) was applied for the determination of lymphocyte transformation reaction.
After the completion of culture, the supernatant (100 μl) in each well was removed, and 5 mg/ml MTT solution (20 μl) was added to each well, which was followed by incubation at 37° C. for 4 hours. Then, a 0.01 N hydrochloric acid solution (100 μl) containing 10% sodium dodecyl sulfate was added and the mixture was incubated at 37° C. overnight. The resulting purple crystals of formazan was dissolved and absorbance at 550 nm was measured using a microplate absorption meter, which was used as the index of lymphocyte transformation reaction of the mouse allogenic MLR. The inhibition of mouse allogenic MLR was evaluated by calculating the inhibition percentage by the following formula The results are shown in Table 7.

Assay [2] relates to normal human umberical vascular endothelial cells. As to the kind of experiment: Inhibition of angiogenesis (lumen formation in vascular endothelial cells). It is filed as cell-based. The note with it: 18 hours, compared with the control, number rises with inhibition of lumen formation. The procedure:
Inhibition of Angiogenesis
The inhibition of angiogenesis was evaluated by using the inhibition of lumen formation in vascular endothelial cell as an index. To be specific, normal human umberical vascular endothelial cells (KURABO […] LTD.) were suspended in E-GMUV medium at 5.5×10^4 cells/ml and 400 μl therefrom was added on matrigel plate (EHS sarcoma-derived reconstructed basement membrane, Collaborative Biomedical Products). Then, the test compound (1 mM solution, 4 μl) was added and the cells were incubated at 37° C. under 5% CO2 gas for 18 hours. After the completion of the incubation, the number of lumen per predetermined area was counted under a microscope. Inasmuch as the number of lumen increases by the inhibition of lumen formation, the test compound was evaluated by comparison of the number of lumen with the control.

Another assay relates to Human SK-Mel-28 melanoma. As to the kind of experiment: Inhibition of cell growth of SK-Mel-28 melanoma. In kind it is cell-based. The note with it: 72 hours, MTT. The procedure: Inhibition of Cell Growth of SK-Mel-28 Melanoma
Human SK-Mel-28 melanoma (10^4 cells) and the test compound were suspended in RPMI1640 medium containing 100 μl of 10% FBS and incubated in a 96 well plate at 37° C. under 5% CO2 gas for 72 hours. After the incubation, 10 μl of MTT (5 mg/ml) was added to each well and the cells were incubated at 37° C. under 5% CO2 gas for 4 hours. Then, 10% sodium dodecyl sulfate and 0.01 N hydrochloric acid solution were each added by 10 μl to respective wells. After the plate was stood overnight, absorbance at 570 nm was measured using a microplate reader and the inhibition percentage (% cytotoxicity) was calculated by the following formula.
The cytotoxicity against human cultured tumor cells was confirmed by pigment method (Carmichael et al., Cancer Res., 47, 936-942, 1987: Mosman, J. Immunol. Methods, 65, 55-63, 1983) using 3-(4,5-dimethylthiazol-2-yl)-2,5-diphenyltetrazolium bromide (MTT).
The test compound was dissolved in dimethyl sulfoxide and diluted with RPMI 1640 medium before use. The final dimethyl sulfoxide concentration was adjusted to not more than 0.25%.

Assay [3] has as its system hind limb skin blood flow. The assay is described as follows: Peripheral blood flow increasing action in STZ-induced diabetic rats. To be noted: intravenous, 1 μg. In kind it is in vivo, rat. The procedure: Peripheral Blood Flow Increasing Action
Streptozotocin (STZ, 65 mg/kg) was intravenously injected to male SD rats (body weight 200-300 g) to prepare diabetic rats. One month later, STZ-induced diabetic rats were anesthetized with pentobarbital sodium and the blood flow in the hind limb skin was measured with laser blood flowmeter (ALF21R, Advance). The test compound was intravenously administered via catheter dwelled in the carotid arteries, and hind limb skin blood flow increasing action was observed. The blood flow increasing action of the test compound was expressed by increase percentage from the blood flow before administration.

Assay [4] has as its system smooth muscle cell (SMC) from rat aorta. As to the kind of experiment: Inhibition of growth of vascular smooth muscle cell. The note with it: 48 hours, MTT. It is filed as cell-based. The procedure: Inhibition of Growth of Vascular Smooth Muscle Cell
The separation from the artery of rat and culture of smooth muscle cell (SMC) followed the explant method of Ross (Ross, R. and Glomset, J. A., N. Engl. J. Med., 295, 369-420, 1976). Male wistar rats (10 week old) was slaughtered by cutting the carotid arteries and aorta of thorax was removed. After removal of fat tissues around the tunica externa and peeling of tunica intima, the artery was minced and incubated in 10% fetal bovine serum (FBS)-containing DMEM medium at 37° C. under 5% CO2 gas. Seven days later, the out-grown cells were separated by trypsin treatment, washed with phosphate-buffered saline (PBS) and incubated in 10% FBS-containing DMEM medium in a 80 cm^2 culture flask. The cells of subculture 2 were suspended in 10% FBS-containing DMEM medium at 5×10^4 cells/ml and 100 μl thereof per well was added to 96 well collagen-coated plate, which was incubated at 37° C. under 5% CO2 gas for one day. The test compound was appropriately diluted with dimethyl sulfoxide (DMSO) and added to the 96 well plate. The concentration of DMSO in the medium was adjusted to 1%. After 48 hours, 10 μl of MTT solution (5 mg/ml) was added and, 4 hours later, 10% sodium dodecyl sulfate-0.01 N hydrochloric acid (50 μl) was added. The absorbance at 570 nm was measured the following day by an immunoreader. The SMC growth inhibitory action of the test compound was shown by inhibition percentage calculated by the following formula The results are shown in Table 10.

The test system of assay [5] is thoractic aorta ring contracted with phenylephrine. The assay is described as follows: Vasodilating action on phenylephrine-contracted thoracic aorta rings. The note with it: rabbit aortic ring, phenylephrine 10^−6 M contraction; concentration for 50% relaxation; read-out: Vasorelaxing action. The procedure: Male rabbits (body weight 1.9-3.0 kg) were anesthetized with pentobarbital sodium and exsanguinated, whereafter thoractic aorta was removed. An about 2 mm width aortic ring samples were prepared and hung in a Magnus bath (40 ml) filled with Krebs-Henseleit solution (37° C., NaCl 117 mM; KCl 4.7 mM; CaCl2 2.5 mM; MgSO4 1.2 mM; NaHCO3 24.8 mM; KH2PO4 1.2 mM; glucose 11.0 mM) at a load of 2 g. The Magnus bath was constantly bubbled with a mixed gas (95% O2+5% CO2 gas). The tension of the preparation was measured with an isomeric transducer (TB-611T, Nippon Koden). The preparation was contracted with phenylephrine (10^−6 M) and, after the contraction was stabilized, the test compound was added accumulatively and relaxing action was observed.

In assay [6] the test system is trachea specimen contracted with acetylcholine. As to the kind of experiment: Effect on contraction by acetylcholine of trachea specimen removed from guinea pig. The note with it: acetylcholine 10^−6 M contraction, 50% relaxation vs papaverine 10^−4 M maximum, read-out: Trachea relaxing action.
Protocol: Male Hartley guinea pigs (body weight 260-390 g) were anesthetized by the peritoneal administration of pentobarbital sodium (100 mg/kg) and exsanguinated, whereafter trachea was removed. The anterior cartilage of the trachea was opened and the band was cut in a 3 mm width strip to give a specimen. The specimen was hung in a Magnus bath (40 ml) filled with Krebs-Henseleit solution (NaCl 117 mM; KCl 4.7 mM; CaCl2 2.5 mM; MgSO4 1.2 mM; NaHCO3 24.8 mM; KH2PO4 1.2 mM; glucose 11.0 mM) at a load of 1 g. The Magnus bath was constantly bubbled with a mixed gas (95% O2+5% CO2 gas). The tension of the strip was measured with an isomeric transducer (TB-611T, Nippon Koden) and depicted on a recorder (Ti-102, Tokai Irika).
The target in assay [7] is T1, Human Platelet Rho Kinase (p160ROCK) (Homo sapiens, UniProt Q13464).
T1 construct: Human platelet p160ROCK was isolated by the method of Ishizaki et al; from tissue; host or cells: human platelets
As to the kind of experiment: Rho kinase inhibitory action (inhibition of human platelet Rho kinase (p160ROCK)). It is filed as biochemical. To be noted: histone substrate, 1 μM ATP. The procedure: Rho Kinase Inhibitory Action (Inhibition of Human Platelet Rho Kinase (p160ROCK))
Kinase assay included the following steps. That is, a reaction mixture (total amount 30 μl) containing 50 mM Hepes-NaOH (pH=7.4), 10 mM MgCl2, 5 mM MnCl2, 2 mM dithiothreitol, 0.02% Brij35, 1 μM [γ-^32P]ATP, 330 μg/ml histone, p160ROCK (2 μl) isolated by the method of Ishizaki et al. and the test compound was incubated at 30° C. for 20 minutes. The solution was mixed with a 1/3 amount of 4× Laemmli sample buffer, boiled for 5 minutes and applied to SDS-PAGE. The gel was stained with Coomassie Brilliant Blue and dried. The band of histone was cut out and assayed for radioactivity.

Structures can show the parent of a compound that is named as a salt. Where two headings read alike, the source gives them in different places.

T1 sequence (Q13464 whole entry): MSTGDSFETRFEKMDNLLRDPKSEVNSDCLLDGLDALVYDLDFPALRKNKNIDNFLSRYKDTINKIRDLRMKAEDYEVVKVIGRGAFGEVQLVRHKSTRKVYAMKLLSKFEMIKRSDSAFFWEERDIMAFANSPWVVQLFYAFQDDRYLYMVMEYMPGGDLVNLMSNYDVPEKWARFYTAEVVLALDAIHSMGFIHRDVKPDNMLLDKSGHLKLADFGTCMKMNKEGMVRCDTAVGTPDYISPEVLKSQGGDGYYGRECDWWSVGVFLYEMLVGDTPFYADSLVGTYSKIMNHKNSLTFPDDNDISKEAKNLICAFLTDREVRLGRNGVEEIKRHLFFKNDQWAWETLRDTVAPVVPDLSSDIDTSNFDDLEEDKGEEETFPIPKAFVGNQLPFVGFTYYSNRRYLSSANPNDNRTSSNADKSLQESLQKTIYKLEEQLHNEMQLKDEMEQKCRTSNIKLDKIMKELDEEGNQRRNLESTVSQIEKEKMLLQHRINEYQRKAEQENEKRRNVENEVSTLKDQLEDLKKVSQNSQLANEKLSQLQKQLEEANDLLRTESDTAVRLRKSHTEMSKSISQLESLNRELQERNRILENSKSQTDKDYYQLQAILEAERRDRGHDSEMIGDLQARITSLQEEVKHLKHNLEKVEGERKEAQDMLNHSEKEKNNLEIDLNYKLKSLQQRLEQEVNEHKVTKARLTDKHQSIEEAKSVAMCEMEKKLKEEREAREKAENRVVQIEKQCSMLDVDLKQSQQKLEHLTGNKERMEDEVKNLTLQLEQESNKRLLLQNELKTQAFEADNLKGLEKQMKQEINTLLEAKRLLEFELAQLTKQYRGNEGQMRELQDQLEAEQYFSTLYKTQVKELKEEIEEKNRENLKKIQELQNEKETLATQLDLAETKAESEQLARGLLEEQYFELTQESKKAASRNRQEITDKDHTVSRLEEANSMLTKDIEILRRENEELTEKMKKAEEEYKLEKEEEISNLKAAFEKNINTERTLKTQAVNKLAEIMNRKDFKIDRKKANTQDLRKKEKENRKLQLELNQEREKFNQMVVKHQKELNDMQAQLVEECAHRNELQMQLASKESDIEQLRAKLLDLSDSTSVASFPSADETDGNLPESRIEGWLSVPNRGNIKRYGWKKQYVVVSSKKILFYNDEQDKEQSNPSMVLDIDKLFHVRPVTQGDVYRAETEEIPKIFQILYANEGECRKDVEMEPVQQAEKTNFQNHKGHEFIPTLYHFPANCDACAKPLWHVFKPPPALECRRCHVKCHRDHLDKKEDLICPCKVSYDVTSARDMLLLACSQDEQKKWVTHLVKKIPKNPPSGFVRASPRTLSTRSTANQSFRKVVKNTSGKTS

As to `CC(C)(N)[C@H]1CC[C@H](C(=O)Nc2ccnc3[nH]ccc23)CC1` [Compound 110.2HCl.H2O, trans-N-(1H-pyrrolo[2,3-b]pyridin-4-yl)-4-(11-amino-1-methylethyl)cyclohexanecarboxamide], the “Bone resorption inhibition % (μM)” value in the assay with mouse femoral bone (100 μM) is listed as 74.0(100) %. The IC50 in assay [1] is 1.1 µM. In addition, the “Number of lumen (10 μM)” value in assay [2] is on record as 203%. `NC[C@H]1CC[C@H](C(=O)Nc2ncnc3[nH]ncc23)CC1` [Compound 115.2HBr.1/4H2O, trans-N-(1H-pyrazolo[3,4-d]pyrimidin-4-yl)-4-aminomethylcyclohexanecarboxamide] had an IC50 in the assay with Human SK-Mel-28 melanoma of 9 µM. As to `N=C(N)NC[C@H]1CC[C@H](C(=O)Nc2ccnc3[nH]ccc23)CC1` [Compound 142.2HCl.H2O, trans-N-(1H-pyrrolo[2,3-b]pyridin-4-yl)-4-guanidinomethylcyclohexanecarboxamide], testing at 100 µM with mouse femoral bone (144 h) gave an inhibition of 44.2%. The IC50 in the assay with Human SK-Mel-28 melanoma turned out to be 59 µM.

The molecule `Cn1ccc2c(NC(=O)[C@H]3CC[C@H](CNC(=N)N)CC3)ccnc21` [Compound 145.2HCl.H2O, trans-N-(1-methylpyrrolo[2,3-b]pyridin-4-yl)-4-(guanidinomethyl)cyclohexanecarboxamide] registered an IC50 in the assay with Human SK-Mel-28 melanoma of 62 µM.

In the case of `C[C@@H](N)c1ccc(C(=O)Nc2ccncc2)cc1` [Compound 157.HCl.H2O, (R)-(+)-N-(4-pyridyl)-4-(1-aminoethyl)benzamide], the “Increase in skin blood flow ± standard error (%)” value in assay [3] worked out at 211.6 ± 13.6%. Moreover, in [4], the IC50 came to 55 µM. For the molecule `C[C@@H](N)c1ccc(C(=O)Nc2ccnc3[nH]ccc23)cc1N=[N+]=[N-]` [Compound 179.2HBr.1/2H2O, (R)-(−)-N-(1H-pyrrolo[2,3-b]pyridin-4-yl)-4-(1-aminoethyl)-3-azidebenzamide], the IC50 in [5] was 0.03 µM; in assay [6], 0.029 µM.

Regarding `CC1CNCCN1S(=O)(=O)c1cccc2cnccc12` (stereo not drawn) [Compound 308.2HCl, 1-(5-isoquinolinesulfonyl)-2-methylpiperazine], the IC50 in [7] is 5 µM; in [1] (Mus musculus, Lymphocyte, 96 h) it was 13.9 µM. Molecule `CCCCCCCCNC(=N)NC[C@H]1CC[C@H](C(=O)Nc2ccnc3[nH]ccc23)CC1` [compound 153.2HCl, trans-N-(1H-pyrrolo[2,3-b]pyridin-4-yl)-4-(3-octylguanidinomethyl)cyclohexanecarboxamide] yielded an IC50 in assay [4] of 27 µM. On the same count and under the same terms, next, `C[C@@H](N)c1ccc(C(=O)Nc2ccncc2)cc1Cl` [compound 163.2HBr, (R)-(+)-N-(4-pyridyl)-4-(1-aminoethyl)-3-chlorobenzamide]: 63 µM.

A word on the inhibition: it is the change of the read-out against control, counted positive when it falls.
